Data taken from US10870647B2, “Imidazopyridine derivative, method for preparing same, and pharmaceutical composition containing same as active ingredient for preventing or treating cancer” (DAEGU-GYEONGBUK MEDICAL INNOVATION FOUNDATION, priority 2016, dated 2020).
Like-named read-outs stand apart in the source and are kept apart here.

Assays:
Assay in all cases: Kinase selectivity, scanMAX Kinase assay panel (DiscoverX), % control at 1 uM
Type in all cases: binding
[1] = target: T1, scanMAX Kinase assay panel (Homo sapiens, UniProt O14965); conditions: AURKA; 1 uM; read-out: Percent Control (%)
T1 construct: purchased DiscoverX
T1 sequence (O14965 1-403): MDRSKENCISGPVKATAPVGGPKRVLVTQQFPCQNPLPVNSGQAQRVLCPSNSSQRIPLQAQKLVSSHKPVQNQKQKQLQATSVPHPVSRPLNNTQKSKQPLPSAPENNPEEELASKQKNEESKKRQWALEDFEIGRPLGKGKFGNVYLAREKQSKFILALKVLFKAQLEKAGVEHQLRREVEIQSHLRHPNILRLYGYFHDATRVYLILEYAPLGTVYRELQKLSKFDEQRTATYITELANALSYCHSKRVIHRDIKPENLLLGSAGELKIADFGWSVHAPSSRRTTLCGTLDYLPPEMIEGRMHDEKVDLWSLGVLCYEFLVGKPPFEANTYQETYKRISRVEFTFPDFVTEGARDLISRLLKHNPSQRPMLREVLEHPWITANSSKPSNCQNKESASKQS
Outline: (§1)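 1 uM cpd (DMSO) per kinase; % ctrl = [cpd − pos ctrl]/[neg ctrl − pos ctrl] × 100; hit if <35.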

[2] = target: T2, scanMAX Kinase assay panel (Homo sapiens, UniProt P00519, Q252H); conditions: 1 uM, read-out: Percent Control (%)
T2 construct: purchased DiscoverX
Outline: as §1

[3] = target: T3, scanMAX Kinase assay panel (Homo sapiens, UniProt P00533, L858R/T790M); conditions: EGFR (L858R, T790M); 1 uM; read-out: Percent Control (%)
T3 construct: purchased DiscoverX
Outline: as §1

[4] = target: T4, scanMAX Kinase assay panel (Homo sapiens, UniProt P06239); conditions: LCK; 1 uM; read-out: Percent Control (%)
T4 construct: purchased DiscoverX
Outline: as §1

[5] = target: T5, scanMAX Kinase assay panel (Homo sapiens, UniProt P22455); conditions: FGFR4; 1 uM; read-out: Percent Control (%)
T5 construct: purchased DiscoverX
Outline: as §1

[6] = target: T6, scanMAX Kinase assay panel (Homo sapiens, UniProt P42336, H1047Y); conditions: PIK3CA (H1047Y); 1 uM; read-out: Percent Control (%)
T6 construct: purchased DiscoverX
Outline: as §1

[7] = target: T7, scanMAX Kinase assay panel (Homo sapiens, UniProt P50750); conditions: CDK9; 1 uM; read-out: Percent Control (%)
T7 construct: purchased DiscoverX
Outline: as §1

[8] = target: T8, scanMAX Kinase assay panel (Homo sapiens, UniProt Q02156); conditions: PRKCE; 1 uM; read-out: Percent Control (%)
T8 construct: purchased DiscoverX
T8 sequence (Q02156 1-737): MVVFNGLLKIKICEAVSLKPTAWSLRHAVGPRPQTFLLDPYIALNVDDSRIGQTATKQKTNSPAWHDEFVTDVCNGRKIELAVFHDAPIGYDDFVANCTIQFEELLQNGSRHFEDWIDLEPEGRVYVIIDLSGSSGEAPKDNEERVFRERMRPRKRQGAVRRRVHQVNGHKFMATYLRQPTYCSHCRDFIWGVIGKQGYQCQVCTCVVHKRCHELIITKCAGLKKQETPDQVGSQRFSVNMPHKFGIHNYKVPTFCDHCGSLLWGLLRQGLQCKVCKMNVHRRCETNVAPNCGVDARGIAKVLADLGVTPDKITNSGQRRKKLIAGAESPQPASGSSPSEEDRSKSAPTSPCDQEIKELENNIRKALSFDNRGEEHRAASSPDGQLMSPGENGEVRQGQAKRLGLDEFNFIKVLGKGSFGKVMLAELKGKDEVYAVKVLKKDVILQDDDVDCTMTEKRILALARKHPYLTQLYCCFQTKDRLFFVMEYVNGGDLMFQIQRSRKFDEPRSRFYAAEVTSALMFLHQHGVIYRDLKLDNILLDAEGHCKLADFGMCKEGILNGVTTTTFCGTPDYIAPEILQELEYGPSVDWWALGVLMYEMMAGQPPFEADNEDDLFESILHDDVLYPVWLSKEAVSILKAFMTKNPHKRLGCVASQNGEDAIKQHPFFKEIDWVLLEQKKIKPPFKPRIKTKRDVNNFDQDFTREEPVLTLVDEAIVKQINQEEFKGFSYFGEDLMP
Outline: as §1

[9] = target: T9, scanMAX Kinase assay panel (Homo sapiens, UniProt Q15746); conditions: MYLK; 1 uM; read-out: Percent Control (%)
T9 construct: purchased DiscoverX
Outline: as §1

[10] = target: T10, scanMAX Kinase assay panel (Homo sapiens, UniProt Q8N5S9); conditions: CAMKK1; 1 uM; read-out: Percent Control (%)
T10 construct: purchased DiscoverX
Outline: as §1

[11] = target: T11, scanMAX Kinase assay panel (Homo sapiens, UniProt Q8NE63); conditions: HIPK4; 1 uM; read-out: Percent Control (%)
T11 construct: purchased DiscoverX
T11 sequence (Q8NE63 1-616): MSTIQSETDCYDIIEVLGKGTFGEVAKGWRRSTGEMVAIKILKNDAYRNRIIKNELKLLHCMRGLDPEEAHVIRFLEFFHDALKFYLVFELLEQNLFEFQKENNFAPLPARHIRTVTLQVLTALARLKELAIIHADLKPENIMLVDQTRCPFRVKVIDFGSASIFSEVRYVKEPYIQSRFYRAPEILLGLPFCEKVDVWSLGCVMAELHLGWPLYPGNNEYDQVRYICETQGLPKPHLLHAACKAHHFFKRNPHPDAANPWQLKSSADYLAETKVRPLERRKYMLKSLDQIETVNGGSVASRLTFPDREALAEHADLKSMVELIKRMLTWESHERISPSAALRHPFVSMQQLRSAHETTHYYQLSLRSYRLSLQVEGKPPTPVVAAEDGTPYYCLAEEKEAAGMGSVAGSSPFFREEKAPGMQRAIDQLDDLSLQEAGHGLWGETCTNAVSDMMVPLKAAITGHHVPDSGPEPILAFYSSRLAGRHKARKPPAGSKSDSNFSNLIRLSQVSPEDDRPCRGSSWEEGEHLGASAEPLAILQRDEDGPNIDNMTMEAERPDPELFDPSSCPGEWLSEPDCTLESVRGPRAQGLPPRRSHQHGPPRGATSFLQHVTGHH
Outline: as §1

T3 sequence (P00533 25-1210 T790M/L858R): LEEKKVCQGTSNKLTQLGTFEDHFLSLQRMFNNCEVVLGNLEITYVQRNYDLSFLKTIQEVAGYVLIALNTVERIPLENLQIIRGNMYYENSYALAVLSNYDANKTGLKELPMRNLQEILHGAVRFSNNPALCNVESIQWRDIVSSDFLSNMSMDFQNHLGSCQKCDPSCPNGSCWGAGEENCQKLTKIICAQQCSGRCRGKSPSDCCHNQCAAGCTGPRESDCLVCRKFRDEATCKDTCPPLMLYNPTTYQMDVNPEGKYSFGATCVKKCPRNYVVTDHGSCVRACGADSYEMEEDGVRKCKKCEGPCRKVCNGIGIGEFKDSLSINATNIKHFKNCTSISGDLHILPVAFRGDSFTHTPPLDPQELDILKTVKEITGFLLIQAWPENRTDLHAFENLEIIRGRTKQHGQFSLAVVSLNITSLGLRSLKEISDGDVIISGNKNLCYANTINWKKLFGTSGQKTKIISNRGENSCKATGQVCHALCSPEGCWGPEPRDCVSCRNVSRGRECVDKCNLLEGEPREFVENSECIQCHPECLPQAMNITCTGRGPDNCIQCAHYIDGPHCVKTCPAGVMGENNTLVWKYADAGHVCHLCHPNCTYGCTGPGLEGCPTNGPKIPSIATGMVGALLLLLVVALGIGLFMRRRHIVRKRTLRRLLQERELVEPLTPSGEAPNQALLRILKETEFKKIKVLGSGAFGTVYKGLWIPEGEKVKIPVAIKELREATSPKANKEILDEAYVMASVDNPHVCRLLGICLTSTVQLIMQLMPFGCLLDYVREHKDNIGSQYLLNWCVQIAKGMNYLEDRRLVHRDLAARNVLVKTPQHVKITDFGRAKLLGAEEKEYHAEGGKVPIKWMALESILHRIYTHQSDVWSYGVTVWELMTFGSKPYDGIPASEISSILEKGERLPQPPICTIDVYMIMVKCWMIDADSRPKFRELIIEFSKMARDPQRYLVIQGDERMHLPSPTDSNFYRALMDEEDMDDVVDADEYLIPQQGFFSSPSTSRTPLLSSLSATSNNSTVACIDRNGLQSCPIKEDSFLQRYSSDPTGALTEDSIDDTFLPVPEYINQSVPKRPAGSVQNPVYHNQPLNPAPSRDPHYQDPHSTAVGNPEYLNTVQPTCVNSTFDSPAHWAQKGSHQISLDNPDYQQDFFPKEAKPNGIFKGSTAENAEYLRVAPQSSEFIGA
T7 sequence (P50750 whole entry): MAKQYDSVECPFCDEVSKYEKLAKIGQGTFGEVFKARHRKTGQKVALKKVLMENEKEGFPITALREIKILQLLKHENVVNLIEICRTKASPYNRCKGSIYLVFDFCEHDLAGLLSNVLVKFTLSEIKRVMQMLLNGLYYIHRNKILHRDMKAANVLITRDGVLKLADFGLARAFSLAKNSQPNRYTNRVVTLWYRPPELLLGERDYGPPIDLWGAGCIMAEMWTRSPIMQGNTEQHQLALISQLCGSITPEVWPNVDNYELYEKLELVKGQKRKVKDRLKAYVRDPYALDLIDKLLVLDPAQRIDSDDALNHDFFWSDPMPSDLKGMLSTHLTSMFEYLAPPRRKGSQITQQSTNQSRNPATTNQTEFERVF
T10 sequence (Q8N5S9 whole entry): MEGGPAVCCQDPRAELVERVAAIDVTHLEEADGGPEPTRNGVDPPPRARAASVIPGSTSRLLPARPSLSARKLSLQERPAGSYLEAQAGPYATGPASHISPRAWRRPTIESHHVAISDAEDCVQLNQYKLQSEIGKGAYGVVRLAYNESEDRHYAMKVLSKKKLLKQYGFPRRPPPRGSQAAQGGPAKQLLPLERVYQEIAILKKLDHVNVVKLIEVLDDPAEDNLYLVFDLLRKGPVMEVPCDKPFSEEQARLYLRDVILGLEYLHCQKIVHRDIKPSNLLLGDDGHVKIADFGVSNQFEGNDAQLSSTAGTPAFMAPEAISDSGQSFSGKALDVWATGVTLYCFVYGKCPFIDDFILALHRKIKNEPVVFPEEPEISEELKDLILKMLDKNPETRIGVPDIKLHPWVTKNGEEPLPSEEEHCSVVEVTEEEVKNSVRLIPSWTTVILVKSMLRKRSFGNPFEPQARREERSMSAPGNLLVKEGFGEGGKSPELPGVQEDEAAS
T9 sequence (Q15746 whole entry): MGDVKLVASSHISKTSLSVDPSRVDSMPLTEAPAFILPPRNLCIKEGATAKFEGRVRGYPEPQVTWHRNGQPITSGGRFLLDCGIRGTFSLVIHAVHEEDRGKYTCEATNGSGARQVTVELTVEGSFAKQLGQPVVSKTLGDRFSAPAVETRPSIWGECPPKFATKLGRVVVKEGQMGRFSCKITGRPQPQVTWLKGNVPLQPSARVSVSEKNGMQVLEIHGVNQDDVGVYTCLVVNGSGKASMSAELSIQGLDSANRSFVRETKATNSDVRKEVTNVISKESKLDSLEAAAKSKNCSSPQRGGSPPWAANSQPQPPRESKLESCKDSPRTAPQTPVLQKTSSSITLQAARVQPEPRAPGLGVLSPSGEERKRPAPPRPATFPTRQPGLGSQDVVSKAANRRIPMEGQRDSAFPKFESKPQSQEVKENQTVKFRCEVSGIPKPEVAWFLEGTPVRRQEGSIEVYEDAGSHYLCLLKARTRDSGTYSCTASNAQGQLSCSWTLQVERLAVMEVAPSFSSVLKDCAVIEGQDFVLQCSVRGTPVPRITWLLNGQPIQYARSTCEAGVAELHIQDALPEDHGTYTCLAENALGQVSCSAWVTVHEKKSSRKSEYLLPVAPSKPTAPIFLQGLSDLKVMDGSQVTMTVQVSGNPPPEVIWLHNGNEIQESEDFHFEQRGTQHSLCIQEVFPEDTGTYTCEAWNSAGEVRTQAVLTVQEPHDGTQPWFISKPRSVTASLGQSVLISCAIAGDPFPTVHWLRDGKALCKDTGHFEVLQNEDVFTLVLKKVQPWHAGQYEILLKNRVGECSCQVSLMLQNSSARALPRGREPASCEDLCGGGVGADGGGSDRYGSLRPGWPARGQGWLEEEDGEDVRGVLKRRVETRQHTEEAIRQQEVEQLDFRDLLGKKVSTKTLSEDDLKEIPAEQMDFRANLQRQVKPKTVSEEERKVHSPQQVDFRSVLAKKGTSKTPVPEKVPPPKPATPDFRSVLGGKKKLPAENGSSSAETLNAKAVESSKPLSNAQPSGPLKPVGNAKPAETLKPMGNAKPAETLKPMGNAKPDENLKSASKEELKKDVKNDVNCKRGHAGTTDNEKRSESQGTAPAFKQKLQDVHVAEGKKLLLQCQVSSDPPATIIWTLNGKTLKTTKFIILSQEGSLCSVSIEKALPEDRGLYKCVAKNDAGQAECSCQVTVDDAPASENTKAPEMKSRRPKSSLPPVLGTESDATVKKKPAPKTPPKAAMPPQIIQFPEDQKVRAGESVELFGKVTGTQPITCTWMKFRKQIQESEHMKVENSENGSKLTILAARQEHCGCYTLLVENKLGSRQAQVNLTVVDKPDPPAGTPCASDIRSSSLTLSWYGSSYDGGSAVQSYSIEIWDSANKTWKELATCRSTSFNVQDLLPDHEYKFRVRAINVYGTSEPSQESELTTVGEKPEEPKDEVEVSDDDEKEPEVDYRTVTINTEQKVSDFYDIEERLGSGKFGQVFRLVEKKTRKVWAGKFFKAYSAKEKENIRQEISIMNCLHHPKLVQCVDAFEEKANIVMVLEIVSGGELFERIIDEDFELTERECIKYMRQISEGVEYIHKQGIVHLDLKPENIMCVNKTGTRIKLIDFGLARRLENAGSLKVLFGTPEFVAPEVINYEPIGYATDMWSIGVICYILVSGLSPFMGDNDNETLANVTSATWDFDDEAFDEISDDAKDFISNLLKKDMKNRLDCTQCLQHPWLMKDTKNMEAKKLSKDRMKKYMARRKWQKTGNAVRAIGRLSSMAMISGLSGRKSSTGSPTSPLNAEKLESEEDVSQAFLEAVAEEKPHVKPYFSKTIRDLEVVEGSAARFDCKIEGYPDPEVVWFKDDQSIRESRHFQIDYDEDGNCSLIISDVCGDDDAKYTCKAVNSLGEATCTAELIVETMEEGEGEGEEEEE
T6 sequence (P42336 whole entry H1047Y): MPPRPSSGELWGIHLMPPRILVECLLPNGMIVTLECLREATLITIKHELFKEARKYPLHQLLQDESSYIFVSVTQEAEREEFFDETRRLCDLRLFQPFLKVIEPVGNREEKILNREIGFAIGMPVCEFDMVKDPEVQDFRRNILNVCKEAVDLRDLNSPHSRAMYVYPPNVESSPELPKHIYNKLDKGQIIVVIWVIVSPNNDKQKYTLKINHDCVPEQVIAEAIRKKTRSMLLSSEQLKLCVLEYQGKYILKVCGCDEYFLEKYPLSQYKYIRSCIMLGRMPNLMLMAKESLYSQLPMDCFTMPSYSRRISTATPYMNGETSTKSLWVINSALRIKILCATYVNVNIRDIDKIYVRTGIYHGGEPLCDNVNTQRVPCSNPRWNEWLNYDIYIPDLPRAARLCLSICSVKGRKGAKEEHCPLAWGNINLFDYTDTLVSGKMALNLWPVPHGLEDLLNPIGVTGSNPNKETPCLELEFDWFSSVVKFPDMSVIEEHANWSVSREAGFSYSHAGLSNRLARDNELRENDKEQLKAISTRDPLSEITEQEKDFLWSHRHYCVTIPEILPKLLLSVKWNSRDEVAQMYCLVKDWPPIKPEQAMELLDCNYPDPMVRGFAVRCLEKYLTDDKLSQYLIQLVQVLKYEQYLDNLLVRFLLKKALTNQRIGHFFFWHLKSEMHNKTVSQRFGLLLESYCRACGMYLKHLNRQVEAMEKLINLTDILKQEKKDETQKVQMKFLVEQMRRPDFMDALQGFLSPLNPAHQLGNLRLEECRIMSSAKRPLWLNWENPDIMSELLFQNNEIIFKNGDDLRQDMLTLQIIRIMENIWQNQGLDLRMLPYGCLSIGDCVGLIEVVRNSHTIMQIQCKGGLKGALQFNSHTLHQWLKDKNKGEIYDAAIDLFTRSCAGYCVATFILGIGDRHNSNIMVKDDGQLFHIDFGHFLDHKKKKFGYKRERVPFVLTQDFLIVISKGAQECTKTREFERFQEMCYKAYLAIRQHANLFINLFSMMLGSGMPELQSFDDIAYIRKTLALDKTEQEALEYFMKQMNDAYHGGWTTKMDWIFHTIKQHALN

Cc1ccc(C(=O)Nc2ccc(CN3CCN(C)CC3)c(C(F)(F)F)c2)cc1C#Cc1cnc2c(Nc3cnn(C)c3)cccn12 [Example 1, 4-methyl-3-((8-((1-methyl-1H-pyrazol-4-yl)amino)imidazo[1,2-a]pyridin-3-yl)ethynyl)-N-(4-((4-methylpiperazin-1-yl)methyl)-3-(trifluoromethyl)phenyl)benzamide]
remaining binding at 1 µM [1]: 72%
remaining binding at 1 µM ([2]; ABL1 (Q252H)-nonphosphorylated): 7%
remaining binding at 1 µM ([2]; ABL1 (Q252H)-phosphorylated): 0%
remaining binding at 1 µM [3]: 17%
remaining binding at 1 µM [4]: 0%
remaining binding at 1 µM [5]: 0%
remaining binding at 1 µM [6]: 74%
remaining binding at 1 µM [7]: 72%
remaining binding at 1 µM [8]: 67%
remaining binding at 1 µM [9]: 64%
remaining binding at 1 µM [10]: 23%
remaining binding at 1 µM [11]: 2%

Cc1cn(-c2cc(NC(=O)c3ccc(C)c(C#Cc4cnc5c(Nc6cnn(C)c6)cccn45)c3)cc(C(F)(F)F)c2)cn1 [Example 12, 4-methyl-N-(3-(4-methyl-1H-imidazol-1-yl)-5-(trifluoromethyl)phenyl)-3-((8-((1-methyl-1H-pyrazol-4-yl)amino)imidazo[1,2-a]pyridin-3-yl)ethynyl)benzamide]
remaining binding at 1 µM [1]: 100%
remaining binding at 1 µM ([2]; ABL1 (Q252H)-nonphosphorylated): 3%
remaining binding at 1 µM ([2]; ABL1 (Q252H)-phosphorylated): 14%
remaining binding at 1 µM [3]: 69%
remaining binding at 1 µM [4]: 0%
remaining binding at 1 µM [5]: 32%
remaining binding at 1 µM [6]: 84%
remaining binding at 1 µM [7]: 88%
remaining binding at 1 µM [8]: 71%
remaining binding at 1 µM [9]: 100%
remaining binding at 1 µM [10]: 81%
remaining binding at 1 µM [11]: 66%

Cc1ccc(NC(=O)C2(C(=O)Nc3ccc(F)cc3)CC2)cc1C#Cc1cnc2c(Nc3cnn(C(C)C)c3)cccn12 [Example 78]
remaining binding at 1 µM [1]: 100%
remaining binding at 1 µM ([2]; ABL1 (Q252H)-nonphosphorylated): 6%
remaining binding at 1 µM ([2]; ABL1 (Q252H)-phosphorylated): 91%
remaining binding at 1 µM [3]: 84%
remaining binding at 1 µM [4]: 40%
remaining binding at 1 µM [5]: 100%
remaining binding at 1 µM [6]: 100%
remaining binding at 1 µM [7]: 100%
remaining binding at 1 µM [8]: 90%
remaining binding at 1 µM [9]: 100%
remaining binding at 1 µM [10]: 100%
remaining binding at 1 µM [11]: 84%
